Test results: patent US6949250B2, “Selective algaecides for control of cyanochloronta” (The United States of America as represented by the …, priority 2002, dated 2005)

Legend:
green algae = assay: DNA1-19-1 first pond efficacy study (limnocorrals): green algae abundance; type: in vivo, green algae (Division Chlorophyta); details: 2 μM, until 10 days after application, LSD
Procedure: (§1) The method described by Schrader et al. (2000) was used to determine the potential for using the anthraquinone derivatives as selective algicides in catfish aquaculture ponds. All catfish ponds used in efficacy tests were maintained using commercial pond management practices and were located at the Thad Cochran Pond Facility, Mississippi State University, Stoneville, Miss. Anthraquinone analogs were dissolved in deionized water before application to water within the limnocorrals.
(§2) Limnocorrals in which test compound was applied to the enclosed water were randomly selected, and control (no test compound applied) limnocorrals were included in each efficacy study. For each sampling, two water samples (250 mL) were obtained from within each limnocorral (approximately 6-8 cm below the water surface and from opposite sides of each limnocorral) and mixed together in a 500 mL sample bottle to provide a representative sample of the water contained within the limnocorral.
Three pond efficacy studies were conducted with DNA1-19-1. […] To perform phytoplankton identification and enumeration, water samples were processed by preserving 50-mL subsamples with Lugol's solution and storing them at 4° C. until they could be identified and counted as “natural units” (i.e., colonies, filaments, or unialgal cells) using a Sedgewick-Rafter counting chamber at 300× magnification. […]

Oscillatoria perornata [1] = assay: DNA1-19-1 first pond efficacy study (limnocorrals): O. perornata abundance; type: in vivo
Oscillatoria perornata [2] = assay: DNA2-59-1 second pond efficacy study: O. perornata abundance; type: in vivo; details: 0.3 μM, within three days of application
Procedure: as §1, §2
(§3) In the second efficacy test with DNA2-59-1, six limnocorrals (1.53 m in diameter and 1.53 m high) were placed in a 0.1-ha earthen pond containing a heavy bloom of O. perornata. The same delay in mixing the water within the limnocorrals used in the first efficacy study was utilized. Water within three randomly selected limnocorrals received an application rate of 0.3 μM DNA2-59-1, and the other three limnocorrals were controls. […]

2-methylisoborneol [3] = assay: DNA2-59-1 first pond efficacy study: MIB levels; type: in vivo; details: 0.3 and 1 μM
Procedure: as §1
(§4) Limnocorrals in which test compound was applied to the enclosed water were randomly selected, and control (no test compound applied) limnocorrals were included in each efficacy study. […]
(§5) In the first study, application rates of 0.1 μM (37.7 μg/L), 0.3 μM ([…]), and 1.0 μM (377 μg/L) of DNA2-59-1 were tested using limnocorrals (three replicates per concentration) that were of the same type used for testing DNA1-19-1. […] Water samples were also analyzed to determine the persistence of DNA2-59-1 in the pond water, and this analysis was performed by using high-pressure liquid chromatography (HPLC) (method and results are described later).

2-methylisoborneol [4] = assay: DNA2-59-1 second pond efficacy study: MIB levels; type: in vivo; details: 0.3 μM, after three days
Procedure: as §1, §2, §3

Oscillatoria perornata [5] = assay: DNA2-59-1 third pond efficacy study: O. perornata abundance; type: in vivo; details: 0.3 μM, within 24 hours after application
Procedure: as §1, §2
(§6) For the third efficacy test with DNA2-59-1, twelve limnocorrals (2.44 m in diameter and 1.53 m high) were placed in a 4-ha earthen pond containing a bloom of O. perornata. […]

diatoms = assay: DNA2-59-1 second pond efficacy study: diatom abundance; type: in vivo, diatoms (division Chromophyta, class Bacillariophyceae); details: 0.3 μM
Procedure: as §1, §2, §3

geosmin = assay: DNA2-59-1 first pond efficacy study: geosmin levels; type: in vivo; details: 1 μM
Procedure: as §1, §4, §5

2-methylisoborneol [6] = assay: DNA2-59-1 third pond efficacy study: MIB levels; type: in vivo; details: 0.3 μM, 24 hours after application
Procedure: as §1, §2, §6

Oscillatoria geminata = assay: DNA2-59-1 second pond efficacy study: Oscillatoria geminata abundance; type: in vivo; details: 0.3 μM
Procedure: as §1, §2, §3

Raphidiopsis brookii = assay: DNA2-59-1 third pond efficacy study: Raphidiopsis brookii abundance; type: in vivo; details: 0.3 μM, one day after application
Procedure: as §1, §2, §6

Row | Structure (SMILES) | Numbers of green algae, treated vs controls (result in words) (green algae) | selectively reducing numbers of O. perornata and MIB levels in pond water (result in words) (Oscillatoria perornata [1]; applied at 2 μM) | Numbers of filaments of O. perornata (result in words) (Oscillatoria perornata [1]; first study, 2 μM, numbers began to increase within 3 days) | Numbers of O. perornata (result in words) (Oscillatoria perornata [2]) | decrease of MIB levels compared to controls and 0.1 μM (result in words) (2-methylisoborneol [3]) | Levels of MIB (result in words) (2-methylisoborneol [4]) | Numbers of O. perornata (result in words) (Oscillatoria perornata [5]) | diatoms (result in words) (diatoms) | decrease of geosmin levels compared to controls and 0.1 and 0.3 μM (result in words) (geosmin) | Levels of 2-methylisoborneol (result in words) (2-methylisoborneol [6]) | Numbers of Oscillatoria geminata (result in words) (Oscillatoria geminata) | Numbers of Raphidiopsis brookii (result in words) (Raphidiopsis brookii)
1 | CCN(CC)CCCC(C)NCc1ccc2c(c1)C(=O)c1ccccc1C2=O.O=P(O)(O)O.O=P(O)(O)O (stereo not drawn) [DNA1-19-1, 2-[methylamino-N-(1′-methyl-4′-N,N-diethylaminobutyl)]-9,10-anthraquinone diphosphate] | not significantly different | effective | significantly reduced | – | – | – | – | – | – | – | – | –
2 | CC(C)NCc1ccc2c(c1)C(=O)c1ccccc1C2=O [DNA2-59-1, 2-[methylamino-N-(1′-methylethyl)]-9,10-anthraquinone monophosphate] | – | – | – | significantly and dramatically reduced | to a greater degree and significantly more | significantly reduced | significantly reduced | not significantly affected | to a greater degree and significantly more | significantly reduced | reduced by application of 0.3 μM DNA2-59-1, though not significantly | significantly reduced
